# According to patent publication US20040214784A1, “Permeable, water soluble, non-irritating prodrugs of chemotherapeutic agents with oxaalkanoic acids” (UNIVERSITY OF KENTUCKY RESEARCH FOUNDATION, priority 1999, published 2004):
# How the values were obtained:
# [1] = Half-lives of hydrolysis of the prodrugs in human serum
# [2] = Half-lives of hydrolysis of the prodrugs in phosphate buffer at pH 7.4
# physchem = conditions: buffer, pH 7.4, Half-life of hydrolysis
# [3] = pH 7.4, Half-life of hydrolysis, Buffer, phosphate buffer at ph 7.4
# [4] = Half-life of hydrolysis, Serum (to mono), hydrolysis to mono
# [5] = pH 7.4, Half-life of hydrolysis, Buffer (to mono), phosphate buffer at ph 7.4, hydrolysis to mono
Structure (SMILES),"half-life ([1]; Half-life of hydrolysis, Serum) [h]","half-life [2, 3] [h]",further results
O=C(COCCOCCO)OCC1CCC(n2cnc3c(=O)[nH]cnc32)O1 (stereo not drawn),0.0917 ± 0.00833,46,
COCCOCC(=O)OCC1CCC(n2cnc3c(=O)[nH]cnc32)O1 (stereo not drawn),0.0367,40,
O=C(COCCOCCO)Nc1ccn(C2CCC(COC(=O)COCCOCCO)O2)c(=O)n1 (stereo not drawn),,,"half-life [1, 4]: 0.0833 ± 0.0167 h; half-life [2, 5]: 20 h"
Nc1ccn(C2CCC(COC(=O)COCCOCCO)O2)c(=O)n1 (stereo not drawn),0.167 ± 0.0167,30,
Cc1cn(C2CC(N=[N+]=[N-])C(COC(=O)COCCOCCO)O2)c(=O)[nH]c1=O (stereo not drawn),0.333 ± 0.0167,21,
COCCOCC(=O)OCC1OC(n2cc(C)c(=O)[nH]c2=O)CC1N=[N+]=[N-] (stereo not drawn),0.06 ± 0.00167,13.3 ± 0.2,
COCCOCC(=O)OCC(=O)[C@@]12OC(C)(C)O[C@@H]1CC1C3CCC4=CC(=O)C=CC4(C)[C@@]3(F)[C@@H](O)CC12C (stereo partly drawn),,,half-life (physchem): 15 h
COCCOCC(=O)OCn1cc(F)c(=O)[nH]c1=O,0.1,1.47,
COCCOCC(=O)OCn1cc(F)c(=O)n(COC(=O)COCCOC)c1=O,,,"half-life [1, 4]: 0.00333 h; half-life [2, 5]: 1.47 h"
COCCOCC(=O)OCn1c(=O)[nH]cc(F)c1=O,0.00833,9.1,
CC[C@@]1(OC(=O)COCCOCCO)C(=O)OCc2c1cc1n(c2=O)Cc2cc3ccccc3nc2-1,,,half-life [1]: 1.9 h; half-life ([2]; pH 7.4): 30 h
COCCOCC(=O)OCCOCn1cnc2c(=O)[nH]c(N)nc21,0.0917,30,
COCCOCCOCC(=O)OCC(=O)[C@@]12OC(C)(C)O[C@@H]1CC1C3CCC4=CC(=O)C=CC4(C)[C@@]3(F)[C@@H](O)CC12C (stereo partly drawn),,,half-life (physchem): 12 h
COCCOCCOCC(=O)OCn1cc(F)c(=O)[nH]c1=O,0.15,3.73,
COCCOCCOCC(=O)OCn1cc(F)c(=O)n(COC(=O)COCCOCCOC)c1=O,,,"half-life [1, 4]: 0.00833 h; half-life [2, 5]: 1.47 h"
COCCOCCOCC(=O)OCn1c(=O)[nH]cc(F)c1=O,0.0167,7.28,
CC[C@@]1(OC(=O)COCCOCCOC)C(=O)OCc2c1cc1n(c2=O)Cc2cc3ccccc3nc2-1,,,half-life [1]: 2 h; half-life ([2]; pH 7.4): 25 h
COCCOCCOCC(=O)OCC(CO)OCn1cnc2c(=O)[nH]c(N)nc21 (stereo not drawn),0.2,26,
COCCOCCOCC(=O)OCC(COC(=O)COCCOCCOC)OCn1cnc2c(=O)[nH]c(N)nc21,0.617,10,
COCCOCCOCC(=O)OCCOCn1cnc2c(=O)[nH]c(N)nc21,0.0167,22,

Structure (SMILES),"half-life ([1]; Half-life of hydrolysis, Serum) [h]","half-life [2, 3] [h]",further results
COCCOCCOCC(=O)Oc1cc(/C=C\c2cc(OC)c(OC)c(OC)c2)ccc1OC,,,half-life [1]: 0.0333 h; half-life ([2]; pH 7.4): 10 h
O=C(O)COCC(=O)OCC1CCC(n2cnc3c(=O)[nH]cnc32)O1 (stereo not drawn),0.0667 ± 0.00833,9.4 ± 0.1,
COC(=O)COCC(=O)OCC1CCC(n2ccc(N)nc2=O)O1 (stereo not drawn),0.1 ± 0.00333,10 ± 0.5,
CC1(C)O[C@@H]2CC3C4CCC5=CC(=O)C=CC5(C)[C@@]4(F)[C@@H](O)CC3(C)[C@]2(C(=O)COC(=O)COCC(=O)O)O1 (stereo partly drawn),,,half-life (physchem): 1 h
CC[C@@]1(OC(=O)COCC(=O)OC)C(=O)OCc2c1cc1n(c2=O)Cc2cc3ccccc3nc2-1,,,half-life [1]: 0.0333 h; half-life ([2]; pH 7.4): 6.1 h
CC[C@@]1(OC(=O)COCC(=O)OCCN(C)C)C(=O)OCc2c1cc1n(c2=O)Cc2cc3ccccc3nc2-1,,,half-life [1]: < 0.0167 h; half-life ([2]; pH 7.4): 0.0833 h
CN(C)CCOCCOC(=O)COCC(=O)OCC1CCC(n2cnc3c(=O)[nH]cnc32)O1 (stereo not drawn),0.05,3.5,
CC[C@@]1(OC(=O)COCC(=O)OCCOCCN(C)C)C(=O)OCc2c1cc1n(c2=O)Cc2cc3ccccc3nc2-1,,,half-life [1]: 0.667 h; half-life ([2]; pH 7.4): 3 h
CC(C)OC(=O)COCC(=O)OCC1CCC(n2cnc3c(=O)[nH]cnc32)O1 (stereo not drawn),0.0833,10,
CC(C)OC(=O)COCC(=O)OCC1CCC(n2ccc(N)nc2=O)O1 (stereo not drawn),0.0217,8.2,
CC(C)OC(=O)COCC(=O)Nc1ccn(C2CCC(CO)O2)c(=O)n1 (stereo not drawn),3.4,18,
CC(C)(C)OC(=O)COCC(=O)OCC1CCC(n2ccc(N)nc2=O)O1 (stereo not drawn),0.0283,11,
CC(C)(C)OC(=O)COCC(=O)Nc1ccn(C2CCC(CO)O2)c(=O)n1 (stereo not drawn),5,16,
COC(=O)COCC(=O)Oc1cc(/C=C\c2cc(OC)c(OC)c(OC)c2)ccc1OC,,,half-life [1]: 0.0417 h; half-life ([2]; pH 7.4): > 48 h
COc1ccc(/C=C\c2cc(OC)c(OC)c(OC)c2)cc1OC(=O)COCC(=O)O,,,half-life [1]: 0.0333 h; half-life ([2]; pH 7.4): 4 h
COc1ccc(/C=C\c2cc(OC)c(OC)c(OC)c2)cc1OC(=O)COCC(=O)OC(C)(C)C,0.123,8.5,
Nc1nc2c(ncn2COCCOC(=O)COCC(=O)O)c(=O)[nH]1,25,40,
CC(C)(C)OC(=O)COCC(=O)OCCOCn1cnc2c(=O)[nH]c(N)nc21,0.045,16,
Nc1nc2c(ncn2COCCOC(=O)COCC(=O)OCCOCn2cnc3c(=O)[nH]c(N)nc32)c(=O)[nH]1,,,"half-life ([1]; Half-life of hydrolysis, Serum, bis to mono): 4 h; half-life ([2]; pH 7.4, Half-life of hydrolysis, Buffer, bis to mono, phosphate buffer at ph 7.4, bis to mono): 10 h"

# Further lines, with some results ahead:
"half-life ([1]; Half-life of hydrolysis, Serum) [h]","half-life [2, 3] [h]",Structure (SMILES),further results
24,96,CC(C)c1nc(CN(C)C(=O)N[C@H](C(=O)N[C@@H](Cc2ccccc2)C[C@H](OC(=O)COCCOCCO)[C@H](Cc2ccccc2)NC(=O)OCc2cncs2)C(C)C)cs1,
16 ± 1,3.2 ± 0.5,COCCOCC(=O)O[C@H](CN1CC[C@H]2CCCC[C@H]2[C@H]1C(=O)NC(C)(C)C)[C@H](Cc1ccccc1)NC(=O)[C@H](CC(N)=O)NC(=O)c1ccc2ccccc2n1,
6 ± 0.5,3.1 ± 0.1,CC(C)(C)NC(=O)[C@@H]1[C@@H]2CCCC[C@@H]2CCN1C[C@@H](OC(=O)COCCOCCO)[C@H](Cc1ccccc1)NC(=O)[C@H](CC(N)=O)NC(=O)c1ccc2ccccc2n1,
2,26,CC[C@@]1(OC(=O)COCCOC)C(=O)OCc2c1cc1n(c2=O)Cc2cc3ccccc3nc2-1,
24,> 48,COCCOCC(=O)O[C@@H](C[C@H](Cc1ccccc1)NC(=O)[C@@H](NC(=O)N(C)Cc1csc(C(C)C)n1)C(C)C)[C@H](Cc1ccccc1)NC(=O)OCc1cncs1,
0.02,30,COCCOCCOCC(=O)OCC1CCC(n2cnc3c(=O)[nH]cnc32)O1 (stereo not drawn),
0.583 ± 0.0833,14 ± 1,COCCOCCOCC(=O)Nc1ccn(C2CCC(COC(=O)COCCOCCOC)O2)c(=O)n1 (stereo not drawn),
0.075,24,COCCOCCOCC(=O)OCC1CCC(n2ccc(N)nc2=O)O1 (stereo not drawn),
0.4033 ± 0.00333,12.3 ± 0.1,COCCOCCOCC(=O)OCC1OC(n2cc(C)c(=O)[nH]c2=O)CC1N=[N+]=[N-] (stereo not drawn),
10 ± 1,3.5 ± 0.2,COCCOCCOCC(=O)O[C@H](CN1CC[C@H]2CCCC[C@H]2[C@H]1C(=O)NC(C)(C)C)[C@H](Cc1ccccc1)NC(=O)[C@H](CC(N)=O)NC(=O)c1ccc2ccccc2n1,
> 48,> 96,COCCOCCOCC(=O)O[C@@H](C[C@H](Cc1ccccc1)NC(=O)[C@@H](NC(=O)N(C)Cc1csc(C(C)C)n1)C(C)C)[C@H](Cc1ccccc1)NC(=O)OCc1cncs1,
40,> 240,CC(C)c1nc(CN(C)C(=O)N[C@H](C(=O)N[C@@H](Cc2ccccc2)C[C@H](OC(=O)COCC(=O)O)[C@H](Cc2ccccc2)NC(=O)OCc2cncs2)C(C)C)cs1,
2.4,5.5,COC(=O)COCC(=O)O[C@@H](C[C@H](Cc1ccccc1)NC(=O)[C@@H](NC(=O)N(C)Cc1csc(C(C)C)n1)C(C)C)[C@H](Cc1ccccc1)NC(=O)OCc1cncs1,
4.5,2.5,COC(=O)COCC(=O)O[C@H](CN1CC[C@H]2CCCC[C@H]2[C@H]1C(=O)NC(C)(C)C)[C@H](Cc1ccccc1)NC(=O)[C@H](CC(N)=O)NC(=O)c1ccc2ccccc2n1,
25,7,CN(C)CCOCCOC(=O)COCC(=O)O[C@H](CN1CC[C@H]2CCCC[C@H]2[C@H]1C(=O)NC(C)(C)C)[C@H](Cc1ccccc1)NC(=O)[C@H](CC(N)=O)NC(=O)c1ccc2ccccc2n1,
35,10,CN(C)CCOC(=O)COCC(=O)O[C@H](CN1CC[C@H]2CCCC[C@H]2[C@H]1C(=O)NC(C)(C)C)[C@H](Cc1ccccc1)NC(=O)[C@H](CC(N)=O)NC(=O)c1ccc2ccccc2n1,
1,2.2,CC(C)c1nc(CN(C)C(=O)N[C@H](C(=O)N[C@@H](Cc2ccccc2)C[C@H](OC(=O)COCC(=O)OCCOCCN(C)C)[C@H](Cc2ccccc2)NC(=O)OCc2cncs2)C(C)C)cs1,
0.162,5.6,CC(C)OC(=O)COCC(=O)Nc1ccn(C2CCC(COC(=O)COCC(=O)OC(C)C)O2)c(=O)n1 (stereo not drawn),
10,5,CC(C)OC(=O)COCC(=O)O[C@H](CN1CC[C@H]2CCCC[C@H]2[C@H]1C(=O)NC(C)(C)C)[C@H](Cc1ccccc1)NC(=O)[C@H](CC(N)=O)NC(=O)c1ccc2ccccc2n1,
20,10,CC(C)(C)NC(=O)[C@@H]1[C@@H]2CCCC[C@@H]2CCN1C[C@@H](OC(=O)COCC(=O)OC(C)(C)C)[C@H](Cc1ccccc1)NC(=O)[C@H](CC(N)=O)NC(=O)c1ccc2ccccc2n1,
0.173,6.2,CC(C)(C)OC(=O)COCC(=O)Nc1ccn(C2CCC(COC(=O)COCC(=O)OC(C)(C)C)O2)c(=O)n1 (stereo not drawn),
